Test results: US9440950B2, “Arginine methyltransferase inhibitors and uses thereof” (Epizyme, Inc., priority 2013, dated 2016)

Target: T1, human PRMT8 (Homo sapiens, UniProt Q9NR22)
T1 construct: Full-length human PRMT8 (NM_019854.4) isoform 1 transcript clone; made in house
Assay: PRMT8 Biochemical Assay
Settings: peptide substrate, 3H-SAM Flashplate assay
Text: S-adenosylmethionine (SAM), S-adenosylhomocysteine (SAH), bicine, Tween20, dimethylsulfoxide (DMSO), bovine skin gelatin (BSG), isopropyl-P3-D-thiogalactopyranoside (IPTG), and Tris(2-carboxyethyl)phosphine hydrochloride solution (TCEP) were purchased from Sigma-Aldrich at the highest level of purity possible. ^3H-SAM was purchase from American Radiolabeled Chemicals with a specific activity of 80 Ci/mmol. 384-well streptavidin Flashplates were purchased from PerkinElmer.
Peptide representative of human histone H4 residues 31-45 was synthesized with an N-terminal linker-affinity tag motif and a C-terminal amide cap by 21st Century Biochemicals. The peptide was purified by high-performance liquid chromatography (HPLC) to greater than 95% purity and confirmed by liquid chromatography mass spectrometry (LC-MS). The sequence was Biot-Ahx-[…]-amide (SEQ ID NO.:8).
The resulting construct encodes an N-terminal GST tag and a thrombin cleavage sequence ([…] […] […] […]) (SEQ ID NO.:9) fused directly to Met 1 of PRMT8.
E. coli (BL21(DE3) Gold, Stratagene) made competent by the CaCl2 method were transformed with the PRMT8 construct and ampicillin selection. Protein over-expression was accomplished by growing the PRMT8 expressing E. coli clone and inducing expression with 0.3 mM IPTG at 16° C. The culture was grown for 12 hours, harvested by centrifugation, and stored at −80° C. for purification.
The column was washed with 50 mM phosphate buffer, 100 mM NaCl, 5% glycerol, 5 mM β-mercaptoethanol, pH 7.8 and PRMT8 was eluted by 100 mM phosphate in the same buffer. Protein was concentrated and buffer was exchanged to 50 mM Tris, 300 mM NaCl, 10% glycerol, 5 mM β-mercaptoethanol, pH 7.8 by ultrafiltration. The purity of recovered protein was 89%.
General Procedure for PRMT8 Enzyme Assays on Peptide Substrates.
The assays were all performed in a buffer consisting of 20 mM Bicine (pH=7.6), 1 mM TCEP, 0.005% BSG, and 0.002% Tween 20, prepared on the day of use. Compounds in 100% DMSO (1 ul) were spotted into a polypropylene 384-well V-bottom plates (Greiner) using a Platemate Plus outfitted with a 384-channel head (Thermo Scientific). DMSO (1 ul) was added to Columns 11, 12, 23, 24, rows A-H for the maximum signal control and 1 ul of SAH, a known product and inhibitor of PRMT8, was added to columns 11, 12, 23, 24, rows I-P for the minimum signal control. A cocktail (40 ul) containing the PRMT8 enzyme was added by Multidrop Combi (Thermo-Fisher). The compounds were allowed to incubate with PRMT8 for 30 min at room temperature, then a cocktail (10 ul) containing ^3H-SAM and peptide was added to initiate the reaction (final volume=51 ul). The final concentrations of the components were as follows: PRMT8 was 1.5 nM, ^3H-SAM was 50 nM, non-radiolabeled SAM was 550 nM, peptide was 150 nM, SAH in the minimum signal control wells was 1 mM, and the DMSO concentration was 2%. The assays were stopped by the addition of non-radiolabeled SAM (10 ul) to a final concentration of 400 uM, which dilutes the ^3H-SAM to a level where its incorporation into the peptide substrate is no longer detectable. 50 ul of the reaction in the 384-well polypropylene plate was then transferred to a 384-well Flashplate and the biotinylated peptides were allowed to bind to the streptavidin surface for at least 1 hour before being washed once with 0.1% Tween20 in a Biotek ELx405 plate washer. The plates were then read in a PerkinElmer TopCount plate reader to measure the quantity of ^3H-labeled peptide bound to the Flashplate surface, measured as disintegrations per minute (dpm) or alternatively, referred to as counts per minute (cpm).
Where dpm=disintegrations per minute, cmpd=signal in assay well, and min and max are the respective minimum and maximum signal controls.
Where top and bottom are the normally allowed to float, but may be fixed at 100 or 0 respectively in a 3-parameter fit. […]

T1 sequence (Q9NR22 whole entry, canonical isoform): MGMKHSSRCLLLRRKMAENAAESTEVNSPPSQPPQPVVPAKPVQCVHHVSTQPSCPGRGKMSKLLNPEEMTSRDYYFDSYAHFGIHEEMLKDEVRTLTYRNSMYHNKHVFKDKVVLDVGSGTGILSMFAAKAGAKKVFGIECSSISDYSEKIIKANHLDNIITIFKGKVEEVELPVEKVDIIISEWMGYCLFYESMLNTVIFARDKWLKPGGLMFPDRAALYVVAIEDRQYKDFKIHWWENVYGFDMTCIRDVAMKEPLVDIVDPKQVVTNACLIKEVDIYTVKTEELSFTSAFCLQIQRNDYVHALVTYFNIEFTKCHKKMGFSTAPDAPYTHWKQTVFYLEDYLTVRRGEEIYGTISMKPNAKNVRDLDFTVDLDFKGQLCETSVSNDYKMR

Structure (SMILES)	IC50
CNCCN(C)Cc1c[nH]nc1-c1ccc(O)nc1 [Compound 2]	≥ 10 µM
CN(CCN)Cc1c[nH]nc1-c1cnccc1C(F)(F)F [Compound 29]	≥ 10 µM
CNCCN(C)Cc1c[nH]nc1-c1ccc(N)nc1 [Compound 3]	3.01 to 10 µM
Cc1ccncc1-c1n[nH]cc1CN(C)CCN [Compound 17]	3.01 to 10 µM
CN(CCN)Cc1c[nH]nc1-c1cncc(S(C)(=O)=O)c1 [Compound 4]	≥ 10 µM
COc1ccncc1-c1n[nH]cc1CN(C)CCN [Compound 16]	3.01 to 10 µM
COc1ncc(Cl)cc1-c1n[nH]cc1CN(C)CCN [Compound 14]	3.01 to 10 µM
CN(CCN)Cc1c[nH]nc1-c1cncc(C#N)c1 [Compound 18]	3.01 to 10 µM
CN(CCN)Cc1c[nH]nc1-c1cccnc1 [Compound 8]	1.01 to 3 µM
CN(CCN)Cc1c[nH]nc1-c1ccccn1 [Compound 27]	≥ 10 µM
COc1cc(-c2n[nH]cc2CN(C)CCN)c(Cl)cn1 [Compound 12]	3.01 to 10 µM
CC(C)CNc1ccc(-c2n[nH]cc2CN(C)CCN)cn1 [Compound 26]	1.01 to 3 µM
CNCCN(C)Cc1c[nH]nc1-c1cccnc1 [Compound 1]	1.01 to 3 µM

Other lines, results leading:

IC50	Structure (SMILES)
0.101 to 1 µM	CN(CCN)Cc1c[nH]nc1-c1ccc(C(F)(F)F)nc1 [Compound 13, N^1-methyl-N^1-((3-(6-(trifluoromethyl)pyridin-3-yl)-1H-pyrazol-4-yl)methyl)ethane-1,2-diamine]
1.01 to 3 µM	COc1cc(-c2n[nH]cc2CN(C)CCN)ccn1 [Compound 11]
1.01 to 3 µM	CN(CCN)Cc1c[nH]nc1-c1cncc(F)c1 [Compound 7]
0.101 to 1 µM	CC(C)Oc1ccc(-c2n[nH]cc2CN(C)CCN)cn1 [Compound 22]
1.01 to 3 µM	COc1ccc(-c2n[nH]cc2CN(C)CCN)cn1 [Compound 5]
1.01 to 3 µM	CN(CCN)Cc1c[nH]nc1-c1cncc(Cl)c1 [Compound 19]
1.01 to 3 µM	Cc1cncc(-c2n[nH]cc2CN(C)CCN)c1 [Compound 6]
1.01 to 3 µM	CN(CCN)Cc1c[nH]nc1-c1ccc(NCc2ccccc2)nc1 [Compound 25]
1.01 to 3 µM	COc1ncccc1-c1n[nH]cc1CN(C)CCN [Compound 15]
1.01 to 3 µM	CCN(CC)c1ccc(-c2n[nH]cc2CN(C)CCN)cn1 [Compound 24]
0.101 to 1 µM	CN(CCN)Cc1c[nH]nc1-c1ccncc1 [Compound 9]
1.01 to 3 µM	CC(C)CN(C)c1ccc(-c2n[nH]cc2CN(C)CCN)cn1 [Compound 21]
0.101 to 1 µM	CN(CCN)Cc1c[nH]nc1-c1ccc(N(C)Cc2ccccc2)nc1 [Compound 23]
0.101 to 1 µM	Cc1cc(-c2n[nH]cc2CN(C)CCN)cnc1Cl [Compound 10]
0.101 to 1 µM	CN(CCN)Cc1c[nH]nc1-c1ccc(C#N)nc1 [Compound 28, 5-(4-(((2-aminoethyl)(methyl)amino)methyl)-1H-pyrazol-3-yl)picolinonitrile]
0.101 to 1 µM	CN(CCN)Cc1c[nH]nc1-c1ccc(N2CCOCC2)nc1 [Compound 20]
